Experimental data from patent US20230123334A1, “AMINO LIPID COMPOUND, PREPARATION METHOD THEREFOR, AND APPLICATION THEREOF” (SHENZHEN SHENXIN BIOTECHNOLOGY CO., LTD., priority 2020, published 2023).

Tested on: HEK293 cells
Experiment: Preliminary screening as mRNA vectors, EGFP mRNA transfection of HEK293 cells
Type: cell-based
Settings: EGFP mRNA 50 ng per well, 96-well plates; percentage of GFP fluorescent cells relative to total number of cells (Hoechst)
Method in brief: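 Each well of HEK293 cells received 50 ng of EGFP mRNA. Efficiency was expressed as percent GFP-expressing cells over Hoechst-defined total cell number.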

Compared with `CCCCCCCCCCCNc1nc(NCCCN2CCN(C)CC2)nc(SCCCCCCCCCCC)n1` [Compound D9S11N11], `CCCCCCCCCCCCCCSc1nc(NCCCCCCCC)nc(NCCCN2CCN(C)CC2)n1` [Compound D9S14N8] is higher in “Absolute mRNA transfection efficiency in HEK293 cells” value (shortened to “Absolute mRNA transfection efficiency”): 24.5% for the first, 24.8% for the second.

First: CCCCCCCCCCCCNc1nc(NCCCN2CCN(C)CC2)nc(SCCCCCCCCCCC)n1 [Compound D9S11N12]
Second: CCCCCCCCCCCCSc1nc(NCCCCCCCCCCC)nc(NCCCN2CCN(C)CC2)n1 [Compound D9S12N11]
The “Absolute mRNA transfection efficiency” value of the first is higher: 21.7% for the first, 3.3% for the second.

Compared with `CCCCCCCCCCCCCNc1nc(NCCCN2CCN(C)CC2)nc(SCCCCCCCCCCC)n1` [Compound D9S11N13], `CCCCCCCCCCCCNc1nc(NCCCN2CCN(C)CC2)nc(SCCCCCCCCCCCC)n1` [Compound D9S12N12] is lower in “Absolute mRNA transfection efficiency” value: 9.4% for the first, 0.9% for the second.

Going from `CCCCCCCCCCCCCCCNc1nc(NCCCN2CCN(C)CC2)nc(SCCCCCCCCCCC)n1` [Compound D9S11N15] to `CCCCCCCCCCCCCCSc1nc(NCCCCCCCCCCCC)nc(NCCCN2CCN(C)CC2)n1` [Compound D9S14N12], the “Absolute mRNA transfection efficiency” value falls from 15.7% to 8.0%.

Going from `CCCCCCCCCCCCCCCCNc1nc(NCCCN2CCN(C)CC2)nc(SCCCCCCCCCCC)n1` [Compound D9S11N16] to `CCCCCCCCCCCCCCCNc1nc(NCCCN2CCN(C)CC2)nc(SCCCCCCCCCCCC)n1` [Compound D9S12N15], the “Absolute mRNA transfection efficiency” value falls from 3.9% to 0.0%.

First: CCCCCCCCCCCCCCCCCCNc1nc(NCCCN2CCN(C)CC2)nc(SCCCCCCCCCCC)n1 [Compound D9S11N18]
Second: CCCCCCCCCCCCCCCNc1nc(NCCCN2CCN(C)CC2)nc(SCCCCCCCCCCCCCC)n1 [Compound D9S14N15]
The “Absolute mRNA transfection efficiency” value of the first is higher: 14.9% for the first, 0.5% for the second.

First: CCCCCCCCCCCCSc1nc(NCCCCCC)nc(NCCCN2CCN(C)CC2)n1 [Compound D9S12N6]
Second: CCCCCCCCCCCCSc1nc(NCCCCCCC)nc(NCCCN2CCN(C)CC2)n1 [Compound D9S12N7]
The “Absolute mRNA transfection efficiency” value of the first is lower: 0.2% for the first, 0.6% for the second.

Compared with `CCCCCCCCCCCCSc1nc(NCCCCCCCC)nc(NCCCN2CCN(C)CC2)n1` [Compound D9S12N8], `CCCCCCCCCCCCCCSc1nc(NCCCCCC)nc(NCCCN2CCN(C)CC2)n1` [Compound D9S14N6] is higher in “Absolute mRNA transfection efficiency” value: 20.1% for the first, 27.2% for the second.

Compared with `CCCCCCCCCCCCSc1nc(NCCCCCCCCC)nc(NCCCN2CCN(C)CC2)n1` [Compound D9S12N9], `CCCCCCCCCCCCCCSc1nc(NCCCCCCC)nc(NCCCN2CCN(C)CC2)n1` [Compound D9S14N7] is higher in “Absolute mRNA transfection efficiency” value: 25.6% for the first, 50.1% for the second.

First: CCCCCCCCCCCCCNc1nc(NCCCN2CCN(C)CC2)nc(SCCCCCCCCCCCC)n1 [Compound D9S12N13]
Second: CCCCCCCCCCCCCCSc1nc(NCCCCCCCCCCC)nc(NCCCN2CCN(C)CC2)n1 [Compound D9S14N11]
The “Absolute mRNA transfection efficiency” value of the first is lower: 1.0% for the first, 15.6% for the second.

First: CCCCCCCCCCCCCCCCNc1nc(NCCCN2CCN(C)CC2)nc(SCCCCCCCCCCCC)n1 [Compound D9S12N16]
Second: CCCCCCCCCCCCCCCSc1nc(NCCCCCCCCCCCCC)nc(NCCCN2CCN(C)CC2)n1 [Compound D9S15N13]
The “Absolute mRNA transfection efficiency” value of the first is lower: 1.2% for the first, 2.0% for the second.

First: CCCCCCCCCCCCCCCCCCNc1nc(NCCCN2CCN(C)CC2)nc(SCCCCCCCCCCCC)n1 [Compound D9S12N18]
Second: CCCCCCCCCCCCCCCCNc1nc(NCCCN2CCN(C)CC2)nc(SCCCCCCCCCCCCCC)n1 [Compound D9S14N16]
The “Absolute mRNA transfection efficiency” value of the first is lower: 0.2% for the first, 0.8% for the second.

First: CCCCCCCCCCCCCCSc1nc(NCCCCCCCCC)nc(NCCCN2CCN(C)CC2)n1 [Compound D9S14N9]
Second: CCCCCCCCCCCCCCCSc1nc(NCCCCCCCC)nc(NCCCN2CCN(C)CC2)n1 [Compound D9S15N8]
The “Absolute mRNA transfection efficiency” value of the first is higher: 23.7% for the first, 10.8% for the second.

Going from `CCCCCCCCCCCCCCSc1nc(NCCCCCCCCCCCCC)nc(NCCCN2CCN(C)CC2)n1` [Compound D9S14N13] to `CCCCCCCCCCCCCCCSc1nc(NCCCCCCCCCCCC)nc(NCCCN2CCN(C)CC2)n1` [Compound D9S15N12], the “Absolute mRNA transfection efficiency” value falls from 4.8% to 4.4%.

Compared with `CCCCCCCCCCCCCCCCCCNc1nc(NCCCN2CCN(C)CC2)nc(SCCCCCCCCCCCCCC)n1` [Compound D9S14N18], `CCCCCCCCCCCCCCCCNc1nc(NCCCN2CCN(C)CC2)nc(SCCCCCCCCCCCCCCCC)n1` [Compound D9S16N16] is lower in “Absolute mRNA transfection efficiency” value: 0.3% for the first, 0.1% for the second.

Compared with `CCCCCCCCCCCCCCCSc1nc(NCCCCCC)nc(NCCCN2CCN(C)CC2)n1` [Compound D9S15N6], `CCCCCCCCCCCCCCCSc1nc(NCCCCCCC)nc(NCCCN2CCN(C)CC2)n1` [Compound D9S15N7] is lower in “Absolute mRNA transfection efficiency” value: 30.7% for the first, 15.9% for the second.

First: CCCCCCCCCCCCCCCSc1nc(NCCCCCCCCC)nc(NCCCN2CCN(C)CC2)n1 [Compound D9S15N9]
Second: CCCCCCCCCCCCCCCCSc1nc(NCCCCCCCC)nc(NCCCN2CCN(C)CC2)n1 [Compound D9S16N8]
The “Absolute mRNA transfection efficiency” value of the first is lower: 18.5% for the first, 71.3% for the second.

Compared with `CCCCCCCCCCCCCCCSc1nc(NCCCCCCCCCCC)nc(NCCCN2CCN(C)CC2)n1` [Compound D9S15N11], `CCCCCCCCCCCCCCCCSc1nc(NCCCCCCCCCCC)nc(NCCCN2CCN(C)CC2)n1` [Compound D9S16N11] is higher in “Absolute mRNA transfection efficiency” value: 9.2% for the first, 68.4% for the second.

Going from `CCCCCCCCCCCCCCCNc1nc(NCCCN2CCN(C)CC2)nc(SCCCCCCCCCCCCCCC)n1` [Compound D9S15N15] to `CCCCCCCCCCCCCCCCNc1nc(NCCCN2CCN(C)CC2)nc(SCCCCCCCCCCCCCCC)n1` [Compound D9S15N16], the “Absolute mRNA transfection efficiency” value rises from 0.2% to 2.7%.

Going from `CCCCCCCCCCCCCCCCCCNc1nc(NCCCN2CCN(C)CC2)nc(SCCCCCCCCCCCCCCC)n1` [Compound D9S15N18] to `CCCCCCCCCCCCCCCCCCNc1nc(NCCCN2CCN(C)CC2)nc(SCCCCCCCCCCCCCCCC)n1` [Compound D9S16N18], the “Absolute mRNA transfection efficiency” value falls from 0.3% to 0.1%.

First: CCCCCCCCCCCCCCCCSc1nc(NCCCCCC)nc(NCCCN2CCN(C)CC2)n1 [Compound D9S16N6]
Second: CCCCCCCCCCCCCCCCSc1nc(NCCCCCCC)nc(NCCCN2CCN(C)CC2)n1 [Compound D9S16N7]
The “Absolute mRNA transfection efficiency” value of the first is lower: 85.7% for the first, 97.9% for the second.

First: CCCCCCCCCCCCCCCCSc1nc(NCCCCCCCCC)nc(NCCCN2CCN(C)CC2)n1 [Compound D9S16N9]
Second: CCCCCCCCCCCCCCCCSc1nc(NCCCCCCCCCCCC)nc(NCCCN2CCN(C)CC2)n1 [Compound D9S16N12]
The “Absolute mRNA transfection efficiency” value of the first is higher: 54.4% for the first, 12.4% for the second.

Compared with `CCCCCCCCCCCCCCCCSc1nc(NCCCCCCCCCCCCC)nc(NCCCN2CCN(C)CC2)n1` [Compound D9S16N13], `CCCCCCCCCCCCCCCCSc1nc(NCCCCCCCCCCCCCCC)nc(NCCCN2CCN(C)CC2)n1` [Compound D9S16N15] is lower in “Absolute mRNA transfection efficiency” value: 1.4% for the first, 0.2% for the second.
